Reference: patent US20090285862A1, “METHODS AND COMPOSITION FOR TREATMENT OF INFLAMMATORY PAIN” (priority 2006, published 2009)
Marks after values point to notes of the source that are not given here.

Experiments:
male Wistar rats = assay: open field activity monitor, testing for sedation; format: in vivo, rat; conditions: for open field activity monitor, mean: male, Wistar, rat, in vivo, ip, 20 min
Method: (§1) Experiments were performed on male Wistar rats (wt 150-220 g). Three series of experiments were performed in an observer blinded fashion with saline (negative) controls and GABAPentin (positive) controls. The investigations were in three stages: • 1. a range of doses of aprepitant (an example of a NK antagonist) given alone and in combination with flupiritine (an example of an inhibitor of neuronal excitation) were tested for sedating effects using the open field activity monitor. In this way it was determined which doses of drug and drug combinations could be used to test for analgesic effects without causing sedation; • 2. a range of doses of aprepitant given alone and in combination with flupirtine were tested for the ability to reverse the allodynia effect causes by intraplantar injection of carrageenan; • 3. a range of doses of aprepitant given alone and in combination with flupirtine were tested for the ability to reverse the allodynia and hyperalgesia caused by streptozotocin-induced diabetic neuropathy.
Individual rats (several rats per treatment group) were placed in an open field activity monitor in which the movement of the rat could be monitored remotely by the frequency and number of interruption of infrared beams directed across the box in a grid. The activity in the monitor was measured for periods of 20 minutes in each rat. This was performed in groups of rats that received (1) control injection of saline, (2) GABAPentin 50 mg/kg as the maximum dose of the drug found previously not to be sedating (drug positive control) administered intraperitoneally, or (3) after pharmacological interventions that involve the administration of aprepitant and flupiritine given at a range of doses alone and in combination. If a rat was sedated by a drug or drug combination, the movements recorded were less. Since rates became habituated to the open field monitor, only one experiment was performed on each rat with this test.
Rats are observed in a commercially available open-field arena in which locomotor and exploratory activity can be monitored in darkness by the breaking of infrared beams arranged in a grid pattern over the entire area (MedAssociates Inc. St. Albans, Vt., USA 05478). The observations are started 5 minutes after the intraperitoneal administration of drugs. The total time of observations in all cases is 20 minutes. In order to avoid habituation to the activity monitor, animals are used once in this test for sedation. Rest time is defined as the time spent with no new infrared beam interruptions.

[1] = system: carrageenan-induced allodynia; assay: carrageenan paw inflammation, reversal of allodynia assessed with Von Frey hairs; format: in vivo, rat; conditions: rats, IP, non-sedating doses, drug administered alone
Method: as §1
Inflammation involves the release of a number of substances into the tissues following injury. These substances including prostaglandins, bradykinin, inflammatory peptides such as substance P and calcitonin gene related peptide and also a number of cytokines. […] Nociceptive thresholds were measured in groups of rats prior to the intraplantar injection. […]

SMILES | open field activity monitor, mean (male Wistar rats; 6.25 mg/kg) | open field activity monitor, mean (male Wistar rats; 12.5 mg/kg) | open field activity monitor, mean (male Wistar rats; 25 mg/kg) | open field activity monitor, mean (male Wistar rats; 50 mg/kg) | open field activity monitor, mean (male Wistar rats; 100 mg/kg) | dose causing no sedating effects (upper limit) (male Wistar rats; rats, drug given alone) [mg/kg] | antinociception, reversal of carrageenan-induced allodynia (Von Frey) [1] | maximum dose found previously not to be sedating (male Wistar rats; rats, intraperitoneally, found previously) [mg/kg]
C[C@@H](O[C@H]1OCCN(Cc2n[nH]c(=O)[nH]2)[C@H]1c1ccc(F)cc1)c1cc(C(F)(F)F)cc(C(F)(F)F)c1 [aprepitant] | 869.0 | 915.0* | 964.6* | 976.6* | 1058.2* | ≤ 6.25 | neither flupirtine or aprepitant given at non-sedating doses caused any antinociception | 
NCC1(CC(=O)O)CCCCC1 [GABAPentin] |  |  |  |  |  |  |  | 50
